Data reported in patent US20100068150A1, “Selective Caspase Inhibitors” (The Board of Trustees of the Leland Stanford Junior …, priority 2006, published 2010).

Test system: endogenous caspases-3, 7, 9 and exogenous recombinant caspase-8 in 293 extracts
Experiment: Labeling in 293 extracts with exogenous recombinant caspase-8 and cytochrome c/dATP
Assay type: binding
Method: (a.) Hypotonic 293 cytosolic extracts were induced to undergo intrinsic apoptosis by addition of cytochrome c/dATP. […] Samples were analyzed by SDS-PAGE followed by biotin blotting using streptavidin-HRP. (b) The identity of individual caspases was confirmed via immunoprecipitation using specific anti-sera for caspases-3, 7 and 9 (also see FIG. 5B for immunoprecipitation of caspases-3 and 7 after KMB01 labeling). Extracts (293) were activated with cytochrome c/dATP for 10 minutes, labeled by addition of indicated probes (100 nM final concentration for bAB06 and bAB13 and 10 μM final concentration for KMB01) and labeled caspases precipitated using specific anti-sera as described in the Methods section. I is input, P is pellet, S is supernatant after specific precipitation. […] Labeling of caspases was monitored by SDS-PAGE followed by biotin blotting with streptavidin-HRP. […]
Selective labeling of endogenous caspases in cell extracts and live cells with active site probes was carried out as follows: Hypotonic 293 cytosolic extracts were induced to undergo intrinsic apoptosis by addition of cytochrome c/dATP. […] Samples were analyzed by SDS-PAGE followed by biotin blotting using streptavidin-HRP. […] Labeling of caspases was monitored by SDS-PAGE followed by biotin blotting with streptavidin-HRP. […]
Protein concentration of hypotonic extracts was measured using a standard Bradford Protein Assay (BioRad). […]

## Cc1cccc(C)c1C(=O)OCC(=O)[C@H](CC(=O)O)NC(=O)[C@@H](NC(=O)[C@H](Cc1ccncc1)NC(=O)[C@H](CC(=O)O)NC(=O)Cc1ccc(O)c([N+](=O)[O-])c1)C(C)C [AB06, Np-D-3-V-D-DMBA]
AB06 10 μM added in conjunction with cytochrome c/dATP
  inhibition of caspases in 293 extracts with added caspase-8: caspases-3 and 7 were selectively inhibited

## Bio-EVD-AOMK [KMB01, reference compound]
Recombinant caspase-8 100 nM, cytochrome c/dATP, probes 10 μM, 30 min
  labeling of caspases in 293 extracts with added caspase-8: strong labeling of the endogenous caspases-3, 7, and 9 as well as the exogenously added caspase-8
